Results published in ChEMBL document CHEMBL3872275, “Synthesis and antiproliferative activity of 2-chlorophenyl carboxamide thienopyridines” (Bioorg Med Chem Lett, 2017).

How the values were obtained:
[1] = Growth inhibition of human MDA-MB-468 cells at 10 uM after 48 hrs by SRB assay relative to control; type: functional; settings: MDA-MB-468, 48 h, values are per cent of control
[2] = Antiproliferative activity against human MDA-MB-231 cells assessed as cell growth at 1 uM after 3 days by thymidine incorporation assay relative to control; type: functional; settings: MDA-MB-231, 72 h, read-out: Activity
[3] = Growth inhibition of human HCT116 cells at 10 uM after 48 hrs by SRB assay relative to control; type: functional; settings: HCT-116, 48 h, values are per cent of control
[4] = Antiproliferative activity against human HCT116 cells assessed as cell growth at 1 uM after 3 days by thymidine incorporation assay relative to control; type: functional; settings: HCT-116, 72 h, read-out: Activity
[5] = Antiproliferative activity against human MDA-MB-468 cells assessed as cell growth at 1 uM after 3 days by thymidine incorporation assay relative to control; type: functional; settings: MDA-MB-468, 72 h, read-out: Activity
[6] = Growth inhibition of human MDA-MB-231 cells at 10 uM after 48 hrs by SRB assay relative to control; type: functional; settings: MDA-MB-231, 48 h, read-out: GI
[7] = Antiproliferative activity against human K562 cells after 3 days by thymidine incorporation assay; type: functional, cell-based; settings: K562, 72 h
[8] = Antiproliferative activity against human MDA-MB-468 cells after 3 days by thymidine incorporation assay; type: functional, cell-based; settings: MDA-MB-468, 72 h
[9] = Antiproliferative activity against human MDA-MB-231 cells after 3 days by thymidine incorporation assay; type: functional, cell-based; settings: MDA-MB-231, 72 h
[10] = Antiproliferative activity against human HCT116 cells after 3 days by thymidine incorporation assay; type: functional, cell-based; settings: HCT-116, 72 h

SMILES	growth, % of control at 10 µM [1]	growth at 1 µM [2]	growth, % of control at 10 µM [3]	growth at 1 µM [4]	growth at 1 µM [5]	inhibition of growth at 10 µM [6]	IC50 [7]	IC50 [8]	IC50 [9]	IC50 [10]
Nc1c(C(=O)Nc2ccccc2Cl)sc2nc3c(cc12)C(=O)CCC3	25%	104%	76%	99%	94%	70%	–	–	–	–
Nc1c(C(=O)Nc2ccccc2Cl)sc2nc3c(cc12)CCCCC3	–	101%	–	94%	81%	–	–	–	–	–
Nc1c(C(=O)Nc2ccccc2Cl)sc2nc3c(cc12)CCCC3	91%	119%	107%	94%	95%	100%	–	–	–	–
Nc1c(C(=O)Nc2ccccc2Cl)sc2nc3c(cc12)CCCCCC3	–	56%	–	71%	100%	–	–	–	–	–
O=c1c2sc3nc4c(cc3c2nnn1-c1ccccc1Cl)CCCCC4	–	105%	–	99%	90%	–	–	–	–	–
O=C1CCCc2nc3sc4c(=O)n(-c5ccccc5Cl)nnc4c3cc21	86%	97%	96%	97%	91%	94%	–	–	–	–
Cc1nc2sc(C(=O)Nc3ccccc3Cl)c(N)c2cc1C(C)O (stereo not drawn)	–	108%	–	97%	96%	–	–	–	–	–
Nc1c(C(=O)Nc2ccccc2Cl)sc2nc3c(cc12)C(O)CCC3 (stereo not drawn)	26%	30%	30%	11%	14%	58%	431 nM	546 nM	675 nM	616 nM
O=c1c2sc3nc4c(cc3c2nnn1-c1ccccc1Cl)C(O)CCC4 (stereo not drawn)	91%	91%	102%	96%	80%	86%	–	–	–	–
CC(=O)OC1CCCc2nc3sc4c(=O)n(-c5ccccc5Cl)nnc4c3cc21 (stereo not drawn)	–	95%	–	98%	93%	–	–	–	–	–
O=c1c2sc3nc4c(cc3c2nnn1-c1ccccc1Cl)CCCCCC4	–	92%	–	90%	85%	–	–	–	–	–
CC(=O)OC1CCCc2nc3sc4c(=O)n(-c5ccccc5Cl)c(C)nc4c3cc21 (stereo not drawn)	–	82%	–	92%	64%	–	–	–	–	–
Nc1c(C(=O)Nc2ccccc2Cl)sc2nc3c(cc12)CCCCCCCC3	–	104%	–	91%	78%	–	–	–	–	–
Cc1nc2sc3c(=O)n(-c4ccccc4Cl)nnc3c2cc1C(C)O (stereo not drawn)	–	100%	–	100%	118%	–	–	–	–	–
CC(=O)OC1CCCc2nc3sc(C(=O)Nc4ccccc4Cl)c(N)c3cc21 (stereo not drawn)	–	10%	–	3%	7%	–	192 nM	181 nM	201 nM	184 nM
O=c1c2sc3nc4c(cc3c2nnn1-c1ccccc1Cl)CCCC4	88%	94%	88%	99%	81%	81%	–	–	–	–
CC(=O)c1cc2c(nc1C)sc1c(=O)n(-c3ccccc3Cl)nnc12	–	103%	–	98%	96%	–	–	–	–	–
CC(=O)c1cc2c(N)c(C(=O)Nc3ccccc3Cl)sc2nc1C	–	100%	–	87%	104%	–	–	–	–	–
O=c1c2sc3nc4c(cc3c2nnn1-c1ccccc1Cl)CCCCCCCC4	–	91%	–	97%	82%	–	–	–	–	–
